The nature of data set [1]: Liptin-PG binding in solution (ITC and/or 1H NMR titration). The conditions noted are these: ITC; DMF/5% CHCl3; 1:1 binding stoichiometry. As to the method:
The lipid binding ability of liptins 1-3 (FIG. 2A) have been investigated in solution using isothermal titration calorimetry (ITC) and/or ^1H NMR. Stoichiometry of binding was accomplished with Job plots using ^1H NMR. […] The use of organic solvents allowed the determination of binding motif using ^1H NMR.
Liptins 1b, 1e, 2c, 2d, 3a, 3c in DMF/5% CHCl3; 3e in 50% DMSO, 45% CHCl3, 5% CH3OH.
Liptins 1h and 1i 40% DMSO, 60% CHCl3, 3f in 20% DMSO, 80% CHCl3.

Data set [2] is described as follows: Inorganic phosphate anion binding in DMF solution. From the text:
Liptins 2a-2d (FIG. 2A) have been prepared and characterized, but not published. However, example syntheses of several precursors required for the preparation of liptins 2a-2d, via precursors 7-8, utilizing soluble copper catalyst developed in our laboratory to couple the two aromatic rings and to elaborate the ring structure is based upon our previous experience, as is our methodology to efficiently ureidoalkylate the bis-phenol intermediates (FIG. 5). […] In contrast, inorganic phosphate anion bound more tightly to 2c (Ka=10^3 M^−1), indicating the anion binding unit with […] linking the two phenolic oxygens was a complementary fit for phosphate anion. By adding two additional methylene groups to the bridge linking the two rings [i.e., now (CH2)5, 2d], the size of the pocket better accommodates the PG head group, leading to increased […] with a Ka≈500 M^−1 in DMF. To further increase binding affinity, we changed the 3-hydroxypropane para-substituent into a 2,3-propane diol para-substituent (seen in 8 prepared from 7, FIG. 5). This increased the number of possible interactions between the liptin and the PG glycerol hydroxyls and reduced possible conformational constraints in the binding pocket when only two hydroxyl groups are present. […]

In data set [3] the test system is MRSA. Briefly: MIC in cation-adjusted Muller Hinton culture. It is filed as cell-based, Methicillin-resistant S. aureus. Particulars: no growth after 24 hours. As to the method: (§1) MICs were determined in cation-adjusted Muller Hinton culture. Standard CLSI protocol for serial dilutions of liptin concentrations were used to determine the MIC, starting at 0.01 OD. Two different experimental cultures were used and each data point measured in triplicate.

The subject of data set [4] is human HeLa (vaginal carcinoma) cells. Briefly: LDH release cytotoxicity assay. The conditions noted are these: up to about 15 μM. It is filed as cell-based. As to the method:
(§2) Toxicity Studies of human HeLa (vaginal carcinoma) and A549 (lung carcinoma epithelial) cells with Liptins 1h and 1k.
(§3) Eukaryote cell toxicity was determined using a Pierce LDH assay kit including the Chemical Compound-Mediated Cytotoxicity assay. This kit measures cell death by measuring the amount of lactate dehydrogenase released from cells. Lactate dehydrogenase (LDH) is a cytosolic enzyme present in many different types of cells. When the plasma membrane is damaged, LDH is released into cell culture media. The released LDH can be quantified by a coupled enzymatic reaction. First, LDH catalyzes the conversion of lactate to pyruvate via reduction of NAD+ to NADH. Second, diaphorase uses NADH to reduce a tetrazolium salt (INT) to a red formazan product. Therefore, the level of formazan formation is directly proportional to the amount of released LDH in the medium.
For orientation: Release of lactate dehydrogenase indicates damage to the cell membrane.

The test system of data set [5] is A549 (lung carcinoma epithelial) cells. The data set is described as follows: LDH release cytotoxicity assay. The conditions noted are these: near 15 μM. It is filed as cell-based. As to the method: as §2, §3
For data set [6], the system named is MRSA. Briefly: Live-Dead stain (BacLight SYTO 9 / propidium iodide). It is filed as cell-based, Methicillin-resistant S. aureus. The conditions noted are these: 90 minutes. As to the method:
(§4) Molecular Probes BacLight© kits containing the SYTO 9 green-fluorescent dye and propidium iodide red-fluorescent dye were used to detect live or dead bacteria after ninety minute exposure of bacteria to liptins 1h or 1k. Bacteria in Muller Hinton culture were grown to an OD=0.3, were inoculated with liptins 1h and 1k and after ninety minutes stained with a mixture of the above dyes and affixed to a slide to be examined under a light microscope (40×) to determine the number of live and dead cells (green colored cells considered alive and red-colored cells considered dead). Data was calculated based upon an average of 5 different plate counts from each slide, and is based on a percent of total bacteria counted (live and dead). Control sample contains no liptin.

Data set [7] deals with Staphylococcus aureus. The data set is described as follows: MIC in cation-adjusted Muller Hinton culture. It is filed as cell-based. The conditions noted are these: no growth after 24 hours. As to the method:
as §1

Data set [8] deals with Klebsiella pneumoniae. Briefly: MIC in cation-adjusted Muller Hinton culture. It counts as cell-based. The conditions noted are these: no growth after 24 hours. As to the method: as §1
For data set [9], the system named is Mycobacterium smegmatis. The data set is described as follows: MIC in cation-adjusted Muller Hinton culture. It counts as cell-based. Particulars: no growth after 24 hours. As to the method: as §1
Data set [10] relates to Escherichia coli. Briefly: MIC in cation-adjusted Muller Hinton culture. The conditions noted are these: no growth after 24 hours. It is filed as cell-based. As to the method: as §1
For data set [11], the system named is Pseudomonas aeruginosa. Briefly: MIC in cation-adjusted Muller Hinton culture. It is filed as cell-based. Particulars: no growth after 24 hours. As to the method:
as §1

The subject of data set [12] is Acinetobacter baumannii. The data set is described as follows: MIC in cation-adjusted Muller Hinton culture. It counts as cell-based. The conditions noted are these: no growth after 24 hours. As to the method: as §1
In data set [13] the test system is Staphylococcus aureus. The data set is described as follows: Live-Dead stain (BacLight SYTO 9 / propidium iodide). It counts as cell-based. Particulars: 5 μM, 90 minutes. As to the method:
as §4

Data set [14] has as its system Klebsiella pneumoniae. Described as above. It counts as cell-based. Particulars: 5 μM, 90 minutes. As to the method: as §4
In data set [15] the test system is Mycobacterium smegmatis. The description is as above. It is filed as cell-based. The conditions noted are these: 5 μM, 90 minutes. As to the method: as §4
Data set [16] concerns Escherichia coli. The data set is described as above. It is filed as cell-based. The conditions noted are these: 10 μM, 90 minutes. As to the method: as §4
For data set [17], the system named is Acinetobacter baumannii. The description is as above. It counts as cell-based. The conditions noted are these: 5 μM, 90 minutes. As to the method:
as §4

In data set [18] the test system is Gram-negative and Gram-positive bacteria. Briefly: MIC/MBC in Muller Hinton culture, summary over the bacteria tested. It is filed as cell-based. As to the method:
as §1
(§5) Minimum bactericidal concentration (MBC) were determined in cation-adjusted Muller Hinton culture. Standard CLSI protocol for serial dilutions of liptin concentrations were used to determine the MBC, starting at 0.01 OD. Two different experimental cultures were used and each data point measured in triplicate.

Data set [19] deals with Gram-positive and Gram-negative bacteria. Briefly: Growth curves in BHI culture with liptins 1h-k. It is filed as cell-based. The conditions noted are these: one inoculation. As to the method: Growth curves in BHI culture were generated (not shown) from liquid shake-flask cultures using absorbance measurements at 600 nm at different concentrations of liptins 1h-k. Uninoculated control flasks were used as blanks. Absorbance values of 0.1 OD unit was considered reasonable threshold for positive growth. The use of the nutrient-rich BHI culture allowed us to measure the effects of the small structural differences in liptins 1h-k on bacterial growth rates over long periods of time. […] Liptin exposure appears to stop bacterial growth, as evidenced by long lag phases, which increase with liptin concentration, and growth rates and maximum cell densities are decreased with liptin treatment.

Data set [20] relates to Staphylococcus aureus. The data set is described as follows: MBC in cation-adjusted Muller Hinton culture. It is filed as cell-based. As to the method: as §5
Data set [21] relates to Klebsiella pneumoniae. The data set is described as follows: MBC in cation-adjusted Muller Hinton culture. It counts as cell-based. As to the method: as §5
The test system of data set [22] is Mycobacterium smegmatis. The data set is described as follows: MBC in cation-adjusted Muller Hinton culture. It counts as cell-based. As to the method:
as §5

Data set [23] deals with Escherichia coli. The data set is described as follows: MBC in cation-adjusted Muller Hinton culture. It is filed as cell-based. As to the method:
as §5

Data set [24] deals with Acinetobacter baumannii. Briefly: MBC in cation-adjusted Muller Hinton culture. It is filed as cell-based. As to the method: as §5
The subject of data set [25] is MRSA. Briefly: MBC in cation-adjusted Muller Hinton culture. It counts as cell-based, Methicillin-resistant S. aureus. As to the method: as §5
For data set [26], the system named is S. aureus. The data set is described as follows: BacLight Bacterial Membrane Potential kit, plasma membrane depolarization. It is filed as cell-based. The conditions noted are these: one half the liptins' MICs; concentration dependent. As to the method:
(§6) The Molecular Probes BacLight® Bacterial Membrane Potential kit was used to detect changes in the polarization of the bacterial plasma membrane upon inoculation of bacteria with varying concentrations of liptins 1h or 1k. […] CCCP (carbonyl cyanide 3-chlorophenylhydrazone) is a proton ionophore that destroys plasma membrane potential and as such is a positive control. […] With plasma membrane depolarization the bacterial cell loses its ability to synthesize ATP and proteins. Additionally loss of membrane potential stops the ability for cell replication due to an inability for proper placement of divisome proteins in the plasma membrane. […] Thus, it is possible that the liptin's mechanism of action is a result of their deleterious effect on the functioning of electron transport proteins found in the plasma membrane.

In data set [27] the test system is E. coli. The data set is described as above. Particulars: one half the liptins' MICs; concentration dependent. It counts as cell-based. As to the method:
as §6

≈ marks a conversion by molar mass, not a printed value.

On to `O=C(NCc1cc(CCCO)cc2c1OCOc1c(cc(CCCO)cc1CNC(=O)Nc1ccccc1)CCC2)Nc1ccccc1` [Liptin 2c], for which, in data set [1], the Ka was found to be 420 M⁻¹. For the same compound, the “Ka for inorganic phosphate anion” value in [2] was 10^3 M^−1.
As usually defined, the MIC is the lowest concentration that inhibits growth of the organism. The low end stands for a more susceptible organism, the high end for a less susceptible organism. In general, MBC refers to the lowest tested concentration that kills the bacteria rather than only halting them. Read a low MBC as greater bactericidal potency. As to `CCCCCCNC(=O)Cc1ccc2c(c1)CNCCCCNCc1cc(CC(=O)NCCCCCC)ccc1OCCCCO2` [Liptin 1k], the minimal inhibitory concentration (MIC) in data set [3] came to 2.5 µM (≈ 1.59 µg/mL); in data set [7], 2 µM (≈ 1.27 µg/mL); in data set [8], 2.5 µM (≈ 1.59 µg/mL); in data set [9], 2 µM (≈ 1.27 µg/mL); in [10], 1.5 µM (≈ 0.955 µg/mL); in [11], 8 µM (≈ 5.1 µg/mL). The compound further yielded an MIC in [12] of 2 µM (≈ 1.27 µg/mL). In addition, the “cell toxicity (LDH release)” value in data set [4] is “no cell toxicity”. The “cytotoxicity (LDH release)” value in data set [5] was “around 8%”. Also, the Dead is given as 70% in data set [6] (5 μM); 100% in data set [6] (10 μM); 42% in data set [13]; 100% in data set [14]; 100% in [15]; 65% in [16]. The compound further registered a Dead in data set [17] of 97%. Further, the Live is recorded as 30% in [6] (5 μM); 0% in data set [6] (10 μM); 58% in data set [13]; 0% in data set [14]; 0% in data set [15]; 35% in [16]. The compound also registered a Live in [17] of 3%. Further, the “MICs determined for the 6 bacteria” value in data set [18] is 1.5 to 2.5 µM. For the same compound, the “antibacterial activity from growth curves” value in data set [19] was “most potent”. Moreover, the minimum bactericidal concentration (MBC) in data set [20] worked out at 9.5 µM (≈ 6.05 µg/mL); in data set [21], 9.5 µM (≈ 6.05 µg/mL); in data set [22] it was 9.5 µM (≈ 6.05 µg/mL); in data set [23] it was 7.5 µM (≈ 4.78 µg/mL); in data set [24], 7.5 µM (≈ 4.78 µg/mL); in data set [25] it was 11.5 µM (≈ 7.32 µg/mL). Also, the “plasma membrane depolarization (red/green fluorescence ratio)” value in [26] and in [27] was “large membrane depolarization” in each case.

Values taken from patent US10668048B2, “Compounds for inhibiting bacterial growth via phosphatidylglycerol binding” (Wichita State University, priority 2016, dated 2020).
